The species entered for assay [1] is Homo sapiens. Put plainly: Selectivity ratio of Ki for human carbonic anhydrase 1 to Ki for human carbonic anhydrase 9.
In the next assay the target is Carbonic anhydrase 9 (Homo sapiens, UniProt Q16790). Put plainly: Inhibition of human carbonic anhydrase 9 preincubated for 15 mins by CO2 hydration stopped-flow assay.
For assay [2], the species on record is Homo sapiens. Put plainly: Selectivity ratio of Ki for human carbonic anhydrase 2 to Ki for human carbonic anhydrase 9.
A further assay deals with Carbonic anhydrase 2 (Homo sapiens, UniProt P00918). The assay can be described thus: Inhibition of human carbonic anhydrase 2 preincubated for 15 mins by CO2 hydration stopped-flow assay.

From ChEMBL document CHEMBL2331460, “Glycosidic carbonic anhydrase IX inhibitors: a sweet approach against cancer” (Bioorg Med Chem, 2013) come the findings set out here.

What is called Ki is a dissociation constant, usually derived from enzyme kinetics or from competition with a known ligand. A high value points to lower affinity.

In the case of `CC(=O)OC[C@H]1O[C@@H](NS(N)(=O)=O)[C@H](OC(C)=O)[C@@H](OC(C)=O)[C@H]1OC(C)=O`, the Ratio Ki was 480 in the assay filed under Homo sapiens [1] and less than 17 in the assay listed under Homo sapiens [2]. At Carbonic anhydrase 9, this molecule returned a Ki of 5 nM.

Molecule `CC(=O)OC[C@H]1O[C@H](NS(N)(=O)=O)C=C[C@@H]1OC(C)=O` registered a Ki on Carbonic anhydrase 9 of 9 nM.

Take `C[C@@H]1O[C@@H](NS(N)(=O)=O)[C@@H](O)[C@H](O)[C@H]1O`: the affinity at Carbonic anhydrase 9, expressed as Ki, was 900 nM. For the same molecule, the Ratio Ki in the assay filed under Homo sapiens [2] is 7.

In turn, `NS(=O)(=O)OC[C@H]1O[C@H](OC[C@H]2[C@H](O)[C@@H](O)[C@H](O)O[C@@H]2CO)[C@H](O)[C@@H](O)[C@@H]1O` had a Ki on Carbonic anhydrase 2 of 11.3 nM.

Take `CC(=O)OC[C@H]1O[C@@H](NS(N)(=O)=O)[C@@H](OC(C)=O)[C@@H](OC(C)=O)[C@@H]1OC(C)=O`: the Ratio Ki in the assay listed under Homo sapiens [1] was 480; in the assay listed under Homo sapiens [2], less than 17.

`CC(=O)OC[C@H]1O[C@@H](NS(N)(=O)=O)[C@H](OC(C)=O)[C@@H](OC(C)=O)[C@@H]1OC(C)=O`: the values for the Ratio Ki in the assay filed under Homo sapiens [1] and in the assay filed under Homo sapiens [2] were 480 and less than 17, respectively. The molecule further returned a Ki at Carbonic anhydrase 9 of 5 nM.
